Data set [1] relates to Male rats (Sprague Dawley). Nature of the data set: Hypocalcemic activity: serum Ca++ decrease in rats after subcutaneous injection. The note with it: rat serum. It is filed as in vivo. As to the method:
Calcitonins lower the blood calcium of immature rats by inhibiting bone resorption. Their potency can be assessed by determining the micrograms of peptide required to reduce the serum calcium by ten percent. The results of in vivo tests of the biological activities of synthetic calcitonin peptides of the invention are shown in Example 37.
This activity was measured as follows: Male rats (Sprague Dawley) weighing approximately 100 grams were fasted overnight. Peptides according to the invention, comprising various potency-enhancing modifications, were dissolved in pH 7.4 PBS buffer at a concentration range of 0.001 microgram to about 100 microgram per ml. The rats were anesthetized with Metophane10, weighed and injected subcutaneously with the peptide solutions in a dose of from 0.001 to about 100 microgram per kilogram of body weight. […] Calcium-lowering potencies of the synthetic peptides can be calculated in International units (IU) per mg as described by the method of M. Kumar et al., J. Endocrinology 33:469-475 (1964). According to this test, 10 IU is defined as the amount of peptide necessary for lowering Ca++ concentration by 10% in 100 gram rats one hour after subcutaneous injection. Serum Ca++ levels in the rat after subcutaneous injection of various peptides are summarized below: […]

Details of data set [2]: species or system rabbits. The note with it: rabbit, in vivo. As to the method: Peptides of the formula I when administered intranasally show hypocalcemic effects in animals. In order to determine their bioavailability, the effect of hypocalcemic peptides administered intranasally were compared with those administered by intravenous injection, as described below. Nasal powdery formulations containing 100 IU per 30 mg of dry powder were prepared substantially as described in U.S. Pat. No. 4,613,500. Peptides were administered intranasally at a dose of 2.8 IU/kg or intravenously at a dose of 1.75 IU/kg to rabbits. Blood samples were withdrawn before administering the peptides and 0.5, 1, 2, 4, and 6 hours after administration, and serum calcium levels determined. The ratios of areas under the curve of hypocalcemic effect (0 to 6 hours) after nasal and intravenous administration are calculated.

Starred links: 1 amine or outer side, 2 acyl side, 3 side chain; linkers in the order of their positions; H or OH if unused. Positions of bridges follow the written chain, without caps; N, C: chain ends. Residues, ends and D or L forms follow the SMILES beside them. Suc = O=C(CCC(=O)[*:2])[*:1]

For the compound “[(D-Ala-Ada-Ser)^5, Ala^7, des-^22 ]-Avian Calcitonin (5-32)”, the “Ca++ Decrease” value in data set [1] (dose 1 ug/kg s.c., 1 hr) is 0.32 mg/dL; in data set [1] (dose 10 ug/kg s.c., 1 hr), 1.42 mg/dL; in data set [1] (dose 100 ug/kg s.c., 1 hr) it was 1.82 mg/dL.
The corresponding values for [(SerThr)2 -Lys-7]-cCT(7-32) are 2.09 mg/dL, 2.75 mg/dL and 2.75 mg/dL.
Consider `CC(C)C[C@H](NC(=O)[C@H](CC(C)C)NC(=O)[C@@H]1CCCCNC(=O)CCC(=O)N[C@@H](CO)C(=O)N[C@@H](CC(N)=O)C(=O)N[C@@H](CC(C)C)C(=O)N[C@@H](CO)C(=O)N[C@@H]([C@@H](C)O)C(=O)N1)C(=O)NCC(=O)N[C@@H](CCCCN)C(=O)N[C@@H](CC(C)C)C(=O)N[C@@H](CO)C(=O)N[C@@H](CCC(N)=O)C(=O)N[C@@H](CCC(=O)O)C(=O)N[C@@H](CC(C)C)C(=O)N[C@@H](Cc1c[nH]cn1)C(=O)N[C@@H](CCCCN)C(=O)N[C@@H](CC(C)C)C(=O)N[C@@H](CCC(N)=O)C(=O)N[C@H](C(=O)N[C@@H](Cc1ccc(O)cc1)C(=O)N1CCC[C@H]1C(=O)N[C@@H](CCCNC(=N)N)C(=O)N[C@H](C(=O)N[C@@H](CC(=O)O)C(=O)N[C@H](C(=O)NCC(=O)N[C@@H](C)C(=O)NCC(=O)N[C@H](C(=O)N1CCC[C@H]1C(N)=O)[C@@H](C)O)C(C)C)[C@@H](C)O)[C@@H](C)O` (SNLSTKLLGKLSQELHKLQTYPRTDVGAGTP-NH2; linker N-6 via Suc), for which the “Ratio of Nasal:i.v. Bioavailability” value in data set [2] is on record as 14.3%.
For [(Oleyl-Ser)-5,Ala-7]-cCT(5-32), the “Ca++ Decrease” value in data set [1] (dose 1 ug/kg s.c., 1 hr) is 0.47 mg/dL; in data set [1] (dose 10 ug/kg s.c., 1 hr), 0.60 mg/dL; in data set [1] (dose 100 ug/kg s.c., 1 hr), 1.15 mg/dL.
Consider `CC(C)C[C@H](NC(=O)[C@H](CC(C)C)NC(=O)[C@@H]1CSSC[C@H](N)C(=O)N[C@@H](CO)C(=O)N[C@@H](CC(N)=O)C(=O)N[C@@H](CC(C)C)C(=O)N[C@@H](CO)C(=O)N[C@@H]([C@@H](C)O)C(=O)N1)C(=O)NCC(=O)N[C@@H](CCCCN)C(=O)N[C@@H](CC(C)C)C(=O)N[C@@H](CO)C(=O)N[C@@H](CCC(N)=O)C(=O)N[C@@H](CCC(=O)O)C(=O)N[C@@H](CC(C)C)C(=O)N[C@@H](Cc1c[nH]cn1)C(=O)N[C@@H](CCCCN)C(=O)N[C@@H](CC(C)C)C(=O)N[C@@H](CCC(N)=O)C(=O)N[C@H](C(=O)N[C@@H](Cc1ccc(O)cc1)C(=O)N1CCC[C@H]1C(=O)N[C@@H](CCCNC(=N)N)C(=O)N[C@H](C(=O)N[C@@H](CC(=O)O)C(=O)N[C@H](C(=O)NCC(=O)N[C@@H](C)C(=O)NCC(=O)N[C@H](C(=O)N1CCC[C@H]1C(N)=O)[C@@H](C)O)C(C)C)[C@@H](C)O)[C@@H](C)O` [(Leu^8)-eCT] (H-CSNLSTCLLGKLSQELHKLQTYPRTDVGAGTP-NH2; disulfide 1-7), for which the “Ratio of Nasal:i.v. Bioavailability” value in data set [2] is listed as 28.6%.
Same read-out and setting: next, `CC[C@H](C)[C@H](NC(=O)[C@H](C)NC(=O)[C@@H](NC(=O)[C@H](CCC(N)=O)NC(=O)[C@@H]1CCCN1C(=O)[C@H](Cc1ccccc1)NC(=O)[C@@H](NC(=O)[C@H](Cc1c[nH]cn1)NC(=O)[C@H](Cc1ccccc1)NC(=O)[C@H](CCCCN)NC(=O)[C@H](CC(N)=O)NC(=O)[C@H](CC(C)C)NC(=O)[C@H](CC(=O)O)NC(=O)[C@H](CCC(N)=O)NC(=O)[C@@H](NC(=O)[C@H](CC(C)C)NC(=O)[C@@H](NC(=O)CNC(=O)[C@H](CC(C)C)NC(=O)[C@H](CC(C)C)NC(=O)[C@@H]1CSSC[C@H](N)C(=O)NCC(=O)N[C@@H](CC(N)=O)C(=O)N[C@@H](CC(C)C)C(=O)N[C@@H](CO)C(=O)N[C@@H]([C@@H](C)O)C(=O)N1)[C@@H](C)O)[C@@H](C)O)[C@@H](C)O)[C@@H](C)O)C(=O)NCC(=O)N[C@H](C(=O)NCC(=O)N[C@@H](C)C(=O)N1CCC[C@H]1C(N)=O)C(C)C` [[Leu-8,12,16]-hCT, [Leu^8,12,16]-hCT] (H-CGNLSTCLLGTLTQDLNKFHTFPQTAIGVGAP-NH2; disulfide 1-7): 28.0%.
Regarding [(LeuCys)^1, Leu^8 ]-eCT, the “Ca++ Decrease” value was 1.24 mg/dL in data set [1] (dose 0.03 ug/kg s.c., 1 hr) and 3.35 mg/dL in data set [1] (dose 1 ug/kg s.c., 1 hr). Besides, the “Ratio of Nasal:i.v. Bioavailability” value in data set [2] is 37.5%.
As for “[(Chx-Ser)^5, Ala^7, des-^22 ]-Avian Calcitonin (5-32) [[(CHX-Ser)-5,Ala-7,des-22]-cCT(5-32)]”, the “Ca++ Decrease” value in data set [1] (dose 1 ug/kg s.c., 1 hr) was 0.32 mg/dL; in data set [1] (dose 10 ug/kg s.c., 1 hr), 1.42 mg/dL; in data set [1] (dose 100 ug/kg s.c., 1 hr), 1.82 mg/dL.
With [(Ac0AOA-SerThr)2 -Lys-7]-cCT(7-32), the “Ca++ Decrease” value in data set [1] (dose 0.1 ug/kg s.c., 1 hr) is 0.42 mg/dL; in data set [1] (dose 0.4 ug/kg s.c., 1 hr), 0.45 mg/dL; in data set [1] (dose 1 ug/kg s.c., 1 hr) it was 2.29 mg/dL; in data set [1] (dose 10 ug/kg s.c., 1 hr), 2.45 mg/dL; in data set [1] (dose 100 ug/kg s.c., 1 hr), 2.34 mg/dL.
As to “[(Chx-Ser-Thr)2 -Lys^7, Leu^8 ]-Eel Calcitonin (7-32) [[(ChxSerThr)2 -Lys^7, Leu^8]-eCT(7-32)]”, the “Ca++ Decrease” value in data set [1] (dose 0.01 ug/kg s.c., 1 hr) is 0.13 mg/dL; in data set [1] (dose 0.03 ug/kg s.c., 1 hr), 0.24 mg/dL; in data set [1] (dose 0.1 ug/kg s.c., 1 hr) it was 0.39 mg/dL; in data set [1] (dose 0.32 ug/kg s.c., 1 hr) it was 1.09 mg/dL; in data set [1] (dose 1 ug/kg s.c., 1 hr) it was 2.42 mg/dL. Besides, the “Ratio of Nasal:i.v. Bioavailability” value in data set [2] worked out at 17.4%.
Take [(ADA-Ser)-5,Ala-7]-cCT(5-32): the “Ca++ Decrease” value in data set [1] (dose 1 ug/kg s.c., 1 hr) is 0.19 mg/dL; in data set [1] (dose 1 ug/kg s.c., 3 hr) it was 0.14 mg/dL; in data set [1] (dose 3 ug/kg s.c., 1 hr), 0.33 mg/dL; in data set [1] (dose 3 ug/kg s.c., 3 hr), 0.21 mg/dL; in data set [1] (dose 10 ug/kg s.c., 1 hr), 2.83 mg/dL; in data set [1] (dose 10 ug/kg s.c., 3 hr), 2.98 mg/dL. Also, the “Ca++ Decrease” value in data set [1] (dose 10 ug/kg s.c., 6 hr) was 2.10 mg/dL.

(Values after patent US5175146A, “Synthetic calcitonin peptides” (Vical, Inc., priority 1990, dated 1992).)
